The values below come from patent US12258327B2, “5-membered heteroaryl-containing aminopyridine compounds as EGFR inhibitors” (YUHAN CORPORATION, priority 2021, dated 2025).

Structures are written as SMILES. Where two headings read alike, the source gives them in different places.

For one test, the target named is EGFR del19/T790M/C797S (Homo sapiens, UniProt P00533, C797S/DEL746-750/T790M). The test can be described thus: Biochemical EGFR kinase assay (Lance Ultra TR-FRET), triple mutant del19/T790M/C797S. In a few lines:
(§1)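 In this biochemical assay, phosphorylation after a one-hour room-temperature reaction was detected with europium-labelled anti-phosphopeptide antibody at 2 nM final concentration.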
In general terms: TR-FRET usually uses a lanthanide donor and a delayed reading to cut background.

The next test addresses EGFR L858R/T790M/C797S (Homo sapiens, UniProt P00533, C797S/L858R/T790M). The test can be described thus: Biochemical EGFR kinase assay (Lance Ultra TR-FRET), triple mutant L858R/T790M/C797S. Put shortly:
as §1

The target of another test is EGFR del19/C797S (Homo sapiens, UniProt P00533, C797S/DEL746-750). Kind of test: Biochemical EGFR kinase assay (Lance Ultra TR-FRET), double mutant del19/C797S. In a few lines:
as §1

A further test deals with EGFR L858R/C797S (Homo sapiens, UniProt P00533, C797S/L858R). Kind of test: Biochemical EGFR kinase assay (Lance Ultra TR-FRET), double mutant L858R/C797S. In a few lines:
as §1

A further test addresses EGFR wildtype (WT) (Homo sapiens, UniProt P00533). Kind of test: Biochemical EGFR kinase assay (Lance Ultra TR-FRET), wildtype. Put shortly: as §1
Setting [1] is: IC50 del19/T790M/C797S (nM) 100 μM ATP, 100 μM ATP.
Setting [2] is: Km ATP, read-out: IC50 del19/T790M/C797S (nM) Km ATP.
[3] abbreviates: IC50 L858R/T790M/C797S (nM) 100 μM ATP, 100 μM ATP.
Where [4] appears, read: Km ATP, read-out: IC50 L858R/T790M/C797S (nM) Km ATP.
The mark [5] stands for this setting: IC50 del19/C797S (nM) 100 μM ATP, 100 μM ATP.
Setting [6] is: Km ATP, read-out: IC50 del19/C797S (nM) Km ATP.
The mark [7] stands for this setting: IC50 L858R/C797S (nM) 100 μM ATP, 100 μM ATP.
The mark [8] stands for this setting: Km ATP, read-out: IC50 L858R/C797S (nM) Km ATP.
[9] abbreviates: IC50 WT (nM) 100 μM ATP, 100 μM ATP.
Setting [10] is: Km ATP, read-out: IC50 WT (nM) Km ATP.
Setting [11] is: read-out: IC50 del19/T790M/C797S (nM) 100 μM ATP, 100 μM ATP.
Where [12] appears, read: read-out: IC50 L858R/T790M/C797S (nM) 100 μM ATP, 100 μM ATP.
Setting [13] is: read-out: IC50 del19/C797S (nM) 100 μM ATP, 100 μM ATP.
Where [14] appears, read: read-out: IC50 L858R/C797S (nM) 100 μM ATP, 100 μM ATP.
Setting [15] is: read-out: IC50 WT (nM) 100 μM ATP, 100 μM ATP.

Chain of EGFR L858R/T790M/C797S (P00533 25-1210 T790M/C797S/L858R): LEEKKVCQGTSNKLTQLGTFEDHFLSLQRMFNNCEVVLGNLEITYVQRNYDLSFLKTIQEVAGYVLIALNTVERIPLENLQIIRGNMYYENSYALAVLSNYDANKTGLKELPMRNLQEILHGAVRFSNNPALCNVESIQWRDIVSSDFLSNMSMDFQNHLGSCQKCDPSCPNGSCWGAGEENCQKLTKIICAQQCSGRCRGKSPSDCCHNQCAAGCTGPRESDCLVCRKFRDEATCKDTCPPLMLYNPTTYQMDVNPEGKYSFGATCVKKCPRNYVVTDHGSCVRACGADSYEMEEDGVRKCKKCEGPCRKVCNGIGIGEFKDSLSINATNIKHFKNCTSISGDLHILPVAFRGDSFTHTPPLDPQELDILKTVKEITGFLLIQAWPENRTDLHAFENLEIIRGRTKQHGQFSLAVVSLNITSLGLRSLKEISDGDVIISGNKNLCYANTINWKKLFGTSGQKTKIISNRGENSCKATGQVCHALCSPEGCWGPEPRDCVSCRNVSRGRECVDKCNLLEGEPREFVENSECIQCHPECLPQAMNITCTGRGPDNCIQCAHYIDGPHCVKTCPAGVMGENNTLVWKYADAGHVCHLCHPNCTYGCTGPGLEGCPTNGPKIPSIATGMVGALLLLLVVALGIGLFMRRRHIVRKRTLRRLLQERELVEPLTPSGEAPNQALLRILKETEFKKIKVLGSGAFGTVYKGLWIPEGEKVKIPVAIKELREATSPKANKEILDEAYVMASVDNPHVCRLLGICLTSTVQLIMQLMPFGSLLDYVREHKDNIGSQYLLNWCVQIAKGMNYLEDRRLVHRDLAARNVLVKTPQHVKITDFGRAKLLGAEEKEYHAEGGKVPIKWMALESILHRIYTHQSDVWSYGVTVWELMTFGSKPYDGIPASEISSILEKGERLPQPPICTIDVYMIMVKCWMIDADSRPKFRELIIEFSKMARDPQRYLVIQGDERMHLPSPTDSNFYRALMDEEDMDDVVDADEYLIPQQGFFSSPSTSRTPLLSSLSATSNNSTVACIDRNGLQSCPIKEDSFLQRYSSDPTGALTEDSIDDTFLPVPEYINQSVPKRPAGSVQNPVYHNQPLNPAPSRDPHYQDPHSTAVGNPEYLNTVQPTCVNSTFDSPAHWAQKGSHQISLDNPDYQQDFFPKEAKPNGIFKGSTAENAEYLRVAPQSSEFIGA
Chain of EGFR wildtype (WT) (P00533 25-1210): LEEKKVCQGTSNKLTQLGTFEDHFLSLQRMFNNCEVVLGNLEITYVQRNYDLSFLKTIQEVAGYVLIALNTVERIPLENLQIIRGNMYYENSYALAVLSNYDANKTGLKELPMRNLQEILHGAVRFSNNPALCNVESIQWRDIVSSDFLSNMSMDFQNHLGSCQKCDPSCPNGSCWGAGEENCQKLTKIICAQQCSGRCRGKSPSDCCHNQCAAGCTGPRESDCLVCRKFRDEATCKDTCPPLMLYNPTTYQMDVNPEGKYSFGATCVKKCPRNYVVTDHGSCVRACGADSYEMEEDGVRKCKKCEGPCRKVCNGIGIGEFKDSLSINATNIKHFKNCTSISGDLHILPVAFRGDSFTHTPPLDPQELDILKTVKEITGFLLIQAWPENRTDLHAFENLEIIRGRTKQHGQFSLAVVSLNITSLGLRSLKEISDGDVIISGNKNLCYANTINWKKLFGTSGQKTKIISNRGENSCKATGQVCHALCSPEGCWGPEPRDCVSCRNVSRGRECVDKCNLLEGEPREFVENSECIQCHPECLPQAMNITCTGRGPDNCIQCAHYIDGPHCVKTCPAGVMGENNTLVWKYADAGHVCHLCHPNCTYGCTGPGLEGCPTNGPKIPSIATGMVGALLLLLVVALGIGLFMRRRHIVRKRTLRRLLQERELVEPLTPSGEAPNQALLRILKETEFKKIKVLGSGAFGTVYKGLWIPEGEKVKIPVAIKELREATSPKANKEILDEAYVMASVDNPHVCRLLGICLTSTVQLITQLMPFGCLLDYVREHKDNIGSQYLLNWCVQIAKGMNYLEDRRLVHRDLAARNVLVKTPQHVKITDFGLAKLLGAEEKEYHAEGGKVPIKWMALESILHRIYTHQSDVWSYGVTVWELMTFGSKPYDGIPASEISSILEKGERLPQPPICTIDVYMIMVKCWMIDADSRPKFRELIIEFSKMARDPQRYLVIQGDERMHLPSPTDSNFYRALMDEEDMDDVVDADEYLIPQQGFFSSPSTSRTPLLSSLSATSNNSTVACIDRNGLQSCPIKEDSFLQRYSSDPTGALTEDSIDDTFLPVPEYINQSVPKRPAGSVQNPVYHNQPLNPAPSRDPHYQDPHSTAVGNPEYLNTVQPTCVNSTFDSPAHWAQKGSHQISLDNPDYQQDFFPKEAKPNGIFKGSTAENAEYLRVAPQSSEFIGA
Chain of EGFR del19/C797S (P00533 with tags, fused parts or gaps DEL746-750/C797S): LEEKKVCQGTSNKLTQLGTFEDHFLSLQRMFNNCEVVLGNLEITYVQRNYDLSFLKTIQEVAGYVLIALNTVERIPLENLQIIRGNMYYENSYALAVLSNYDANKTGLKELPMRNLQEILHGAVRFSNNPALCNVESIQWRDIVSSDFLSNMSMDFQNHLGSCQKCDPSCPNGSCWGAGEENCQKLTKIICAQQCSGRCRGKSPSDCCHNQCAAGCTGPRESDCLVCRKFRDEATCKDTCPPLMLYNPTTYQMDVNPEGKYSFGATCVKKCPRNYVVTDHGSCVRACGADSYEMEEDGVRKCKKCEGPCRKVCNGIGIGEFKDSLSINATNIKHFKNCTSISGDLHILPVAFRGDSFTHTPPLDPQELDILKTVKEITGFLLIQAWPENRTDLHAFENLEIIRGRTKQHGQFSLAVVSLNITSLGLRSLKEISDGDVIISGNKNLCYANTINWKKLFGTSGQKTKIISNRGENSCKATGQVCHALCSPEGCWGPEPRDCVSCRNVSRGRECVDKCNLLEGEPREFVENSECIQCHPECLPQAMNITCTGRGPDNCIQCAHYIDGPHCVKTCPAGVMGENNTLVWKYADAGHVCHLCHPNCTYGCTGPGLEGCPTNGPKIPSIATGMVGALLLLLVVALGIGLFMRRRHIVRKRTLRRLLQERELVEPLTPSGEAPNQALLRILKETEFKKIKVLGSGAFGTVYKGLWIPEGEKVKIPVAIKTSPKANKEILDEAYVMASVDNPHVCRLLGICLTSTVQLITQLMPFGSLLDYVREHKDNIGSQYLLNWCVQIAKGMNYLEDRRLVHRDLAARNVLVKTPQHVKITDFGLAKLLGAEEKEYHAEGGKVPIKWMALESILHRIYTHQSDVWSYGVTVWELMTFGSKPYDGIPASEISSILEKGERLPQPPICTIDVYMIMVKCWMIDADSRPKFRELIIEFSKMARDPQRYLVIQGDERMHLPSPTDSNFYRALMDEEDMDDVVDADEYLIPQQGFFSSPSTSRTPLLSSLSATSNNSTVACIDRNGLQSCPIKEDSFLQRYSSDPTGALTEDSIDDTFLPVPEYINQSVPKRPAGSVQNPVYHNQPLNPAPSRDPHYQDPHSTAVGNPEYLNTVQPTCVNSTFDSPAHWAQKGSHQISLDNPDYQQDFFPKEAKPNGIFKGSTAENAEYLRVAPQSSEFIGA
Chain of EGFR L858R/C797S (P00533 25-1210 C797S/L858R): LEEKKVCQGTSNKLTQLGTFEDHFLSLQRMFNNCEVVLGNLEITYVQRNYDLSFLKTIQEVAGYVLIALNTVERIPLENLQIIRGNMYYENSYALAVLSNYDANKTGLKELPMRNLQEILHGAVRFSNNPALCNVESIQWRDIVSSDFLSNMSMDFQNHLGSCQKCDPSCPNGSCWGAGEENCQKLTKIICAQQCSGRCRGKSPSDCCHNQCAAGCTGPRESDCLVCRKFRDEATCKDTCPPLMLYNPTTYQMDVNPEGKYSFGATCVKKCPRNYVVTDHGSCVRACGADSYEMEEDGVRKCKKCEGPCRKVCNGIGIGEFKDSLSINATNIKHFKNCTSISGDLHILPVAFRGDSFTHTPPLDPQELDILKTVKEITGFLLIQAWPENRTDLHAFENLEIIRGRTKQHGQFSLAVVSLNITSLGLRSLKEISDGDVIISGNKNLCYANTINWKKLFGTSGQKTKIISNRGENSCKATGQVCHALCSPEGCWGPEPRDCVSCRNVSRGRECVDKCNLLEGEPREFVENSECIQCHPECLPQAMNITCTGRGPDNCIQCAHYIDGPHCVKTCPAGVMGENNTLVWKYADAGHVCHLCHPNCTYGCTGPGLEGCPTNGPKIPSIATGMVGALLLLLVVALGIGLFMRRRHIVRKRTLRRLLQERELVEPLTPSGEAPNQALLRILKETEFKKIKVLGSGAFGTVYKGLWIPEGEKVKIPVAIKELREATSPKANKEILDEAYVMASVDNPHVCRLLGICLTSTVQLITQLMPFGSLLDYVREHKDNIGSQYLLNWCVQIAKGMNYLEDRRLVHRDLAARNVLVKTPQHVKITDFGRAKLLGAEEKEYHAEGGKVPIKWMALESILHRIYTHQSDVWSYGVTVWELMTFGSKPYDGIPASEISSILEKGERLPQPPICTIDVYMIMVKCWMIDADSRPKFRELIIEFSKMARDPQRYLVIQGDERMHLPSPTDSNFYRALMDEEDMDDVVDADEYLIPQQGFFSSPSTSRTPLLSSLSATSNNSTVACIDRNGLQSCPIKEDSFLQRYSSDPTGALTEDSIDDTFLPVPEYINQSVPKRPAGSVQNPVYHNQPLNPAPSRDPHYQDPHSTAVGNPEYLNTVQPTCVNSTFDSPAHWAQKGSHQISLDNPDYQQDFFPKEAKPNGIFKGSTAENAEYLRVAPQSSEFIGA

With `O=S(=O)(C1CC1)n1cc(-c2nccc(Nc3cc(NC4CC5CC(O)C4C5)c(-c4ccn(C(F)F)n4)cn3)n2)cn1` (centres unmarked) [Example 39, 6-((2-((2-(1-(Cyclopropylsulfonyl)-1H-pyrazol-4-yl)pyrimidin-4-yl)amino)-5-(1-(difluoromethyl)-1H-pyrazol-3-yl)pyridin-4-yl)amino)bicycle[2.2.1]heptan-2-ol], the IC50 stood at 3.6 nM on EGFR del19/T790M/C797S (setting [1]); 1.6 nM on EGFR del19/T790M/C797S (setting [2]); 7.9 nM at EGFR L858R/T790M/C797S (setting [3]); 1.2 nM at EGFR L858R/T790M/C797S (setting [4]); 17.6 nM at EGFR del19/C797S (setting [5]); 7.2 nM on EGFR del19/C797S (setting [6]). The IC50 is 262 nM at EGFR L858R/C797S (setting [7]), 27.8 nM on EGFR L858R/C797S (setting [8]), more than 10000 nM at EGFR wildtype (WT) (setting [9]) and 143 nM on EGFR wildtype (WT) (setting [10]).

As to `O=S(=O)(C1CC1)n1cc(-c2nccc(Nc3cc(N[C@H]4CC[C@@H](CO)CC4)c(-c4ccn(C5CC5)n4)cn3)n2)cn1` [Example 297, ((1s,4s)-4-((5-(1-Cyclopropyl-1H-pyrazol-3-yl)-2-((2-(1-(cyclopropylsulfonyl)-1H-pyrazol-4-yl)pyrimidin-4-yl)amino)pyridin-4-yl)amino)cyclohexyl)methanol], the IC50 at EGFR del19/T790M/C797S (setting [1]) amounted to 0.2 nM; at EGFR del19/T790M/C797S (setting [2]), 0.1 nM; against EGFR L858R/T790M/C797S (setting [3]) it was 0.5 nM; on EGFR L858R/T790M/C797S (setting [4]), 0.1 nM; at EGFR del19/C797S (setting [5]), 0.7 nM; at EGFR del19/C797S (setting [6]), 0.5 nM. In addition, the IC50 against EGFR L858R/C797S (setting [7]) was 3.9 nM; at EGFR L858R/C797S (setting [8]) it was 0.3 nM; against EGFR wildtype (WT) (setting [9]), 582 nM; at EGFR wildtype (WT) (setting [10]), 1.6 nM.

With `CCC(C)Nc1cc(Nc2ccnc(-c3cnn(S(=O)(=O)C4CC4)c3)n2)ncc1-c1ccn(C(F)F)n1` (centres unmarked) [Example 210, N^4-(sec-Butyl)-N^2-(2-(1-(cyclopropylsulfonyl)-1H-pyrazol-4-yl)pyrimidin-4-yl)-5-(1-(difluoromethyl)-1H-pyrazol-3-yl)pyridine-2,4-diamine], the IC50 is 1.7 nM on EGFR del19/T790M/C797S (setting [2]); 1.3 nM on EGFR L858R/T790M/C797S (setting [4]); 70.5 nM on EGFR del19/C797S (setting [6]); 6.5 nM on EGFR L858R/C797S (setting [8]); 90.5 nM on EGFR wildtype (WT) (setting [10]).

In the case of `CN(C)C[C@H]1CC[C@H](CNc2cc(Nc3ccnc(-c4cnn(S(=O)(=O)C5CC5)c4)n3)ncc2-c2csc(C(F)(F)F)n2)CC1` [Example 101, N^2-(2-(1-(Cyclopropylsulfonyl)-1H-pyrazol-4-yl)pyrimidin-4-yl)-N^4-(((1r,4r)-4-((dimethylamino)methyl)cyclohexyl)methyl)-5-(2-(trifluoromethyl)thiazol-4-yl)pyridine-2,4-diamine], the IC50 came to 0.3 nM on EGFR del19/T790M/C797S (setting [1]); 0.3 nM at EGFR del19/T790M/C797S (setting [2]); 0.3 nM against EGFR L858R/T790M/C797S (setting [3]); 0.1 nM at EGFR L858R/T790M/C797S (setting [4]); 0.4 nM against EGFR del19/C797S (setting [5]); 0.4 nM on EGFR del19/C797S (setting [6]). Further, the IC50 stood at 3.8 nM against EGFR L858R/C797S (setting [7]), 0.8 nM at EGFR L858R/C797S (setting [8]) and 828 nM against EGFR wildtype (WT) (setting [9]).

On to `Cn1nc(-c2cnc(Nc3ccnc(-c4cnn(S(=O)(=O)C5CC5)c4)n3)cc2N[C@H]2CC[C@@](C)(O)CC2)cc1C(C)(C)O` [Example 293, (1s,4s)-4-((2-((2-(1-(Cyclopropylsulfonyl)-1H-pyrazol-4-yl)pyrimidin-4-yl)amino)-5-(5-(2-hydroxypropan-2-yl)-1-methyl-1H-pyrazol-3-yl)pyridin-4-yl)amino)-1-methylcyclohexan-1-ol], for which the IC50 came out at 0.6 nM on EGFR del19/T790M/C797S (setting [1]); 0.4 nM at EGFR del19/T790M/C797S (setting [2]); 0.4 nM against EGFR L858R/T790M/C797S (setting [3]); 0.2 nM at EGFR L858R/T790M/C797S (setting [4]); 0.9 nM at EGFR del19/C797S (setting [5]); 0.8 nM on EGFR del19/C797S (setting [6]). In addition, the IC50 on EGFR L858R/C797S (setting [8]) was 0.3 nM; against EGFR wildtype (WT) (setting [9]) it was 183 nM; at EGFR wildtype (WT) (setting [10]), 0.6 nM.

As to `O=S(=O)(C1CC1)n1cc(-c2nccc(Nc3cc(N[C@H]4CC[C@@H](CCO)CC4)c(-c4ccn(CC(F)(F)F)n4)cn3)n2)cn1` [Example 269, 2-((1s,4s)-4-((2-((2-(1-(Cyclopropylsulfonyl)-1H-pyrazol-4-yl)pyrimidin-4-yl)amino)-5-(1-(2,2,2-trifluoroethyl)-1H-pyrazol-3-yl)pyridin-4-yl)amino)cyclohexyl)ethan-1-ol], the IC50 stood at 1.3 nM against EGFR del19/T790M/C797S (setting [1]); 2.8 nM at EGFR del19/T790M/C797S (setting [2]); 1.4 nM on EGFR L858R/T790M/C797S (setting [3]); 0.5 nM at EGFR L858R/T790M/C797S (setting [4]); 29.9 nM at EGFR del19/C797S (setting [5]); 1.3 nM at EGFR del19/C797S (setting [6]). The IC50 at EGFR L858R/C797S (setting [7]) turned out to be 4 nM; at EGFR L858R/C797S (setting [8]), 1.4 nM; against EGFR wildtype (WT) (setting [9]), 5750 nM; on EGFR wildtype (WT) (setting [10]), 7.1 nM.

`CC(C)(O)[C@H]1CC[C@@H](Nc2cc(Nc3ccnc(-c4cnn(S(=O)(=O)C5CC5)c4)n3)ncc2-c2cc3n(n2)CCCC3)CC1` [Example 61, 2-((1s,4s)-4-((2-((2-(1-(Cyclopropylsulfonyl)-1H-pyrazol-4-yl)pyrimidin-4-yl)amino)-5-(4,5,6,7-tetrahydropyrazolo[1,5-a]pyridin-2-yl)pyridin-4-yl)amino)cyclohexyl)propan-2-ol]: the IC50 worked out at 4.3 nM on EGFR del19/T790M/C797S (setting [1]); 2 nM at EGFR del19/T790M/C797S (setting [2]); 2.4 nM against EGFR L858R/T790M/C797S (setting [3]); 0.8 nM at EGFR L858R/T790M/C797S (setting [4]); 6.2 nM on EGFR del19/C797S (setting [5]); 1.9 nM at EGFR del19/C797S (setting [6]). Also, the IC50 on EGFR L858R/C797S (setting [7]) turned out to be 8.8 nM; on EGFR L858R/C797S (setting [8]), 2.9 nM; at EGFR wildtype (WT) (setting [9]), 2900 nM; on EGFR wildtype (WT) (setting [10]), 7.9 nM.

Consider `O=S(=O)(C1CC1)n1cc(-c2nccc(Nc3cc(N[C@H]4CCC[C@H](CO)C4)c(-c4ccn(C(F)F)n4)cn3)n2)cn1` [Example 202, ((1S,3S)-3-((2-((2-(1-(Cyclopropylsulfonyl)-1H-pyrazol-4-yl)pyrimidin-4-yl)amino)-5-(1-(difluoromethyl)-1H-pyrazol-3-yl)pyridin-4-yl)amino)cyclohexyl)methanol], for which the IC50 came to 1.3 nM on EGFR del19/T790M/C797S (setting [1]); 1.1 nM at EGFR del19/T790M/C797S (setting [2]); 1.4 nM at EGFR L858R/T790M/C797S (setting [3]); 0.5 nM at EGFR L858R/T790M/C797S (setting [4]); 6.6 nM against EGFR del19/C797S (setting [5]); 1.4 nM at EGFR del19/C797S (setting [6]). Besides, the IC50 at EGFR L858R/C797S (setting [7]) is 17.8 nM; on EGFR L858R/C797S (setting [8]) it was 2.7 nM; at EGFR wildtype (WT) (setting [9]) it was more than 10000 nM; at EGFR wildtype (WT) (setting [10]), 10.6 nM.

For `O=S(=O)(C1CC1)n1cc(-c2nccc(Nc3cc(NC[C@H]4CC[C@H](NCC(F)F)CC4)c(-c4ccn(C(F)F)n4)cn3)n2)cn1` [Example 130, N^2-(2-(1-(Cyclopropylsulfonyl)-1H-pyrazol-4-yl)pyrimidin-4-yl)-N^4-(((1r,4r)-4-((2,2-difluoroethyl)amino)cyclohexyl)methyl)-5-(1-(difluoromethyl)-1H-pyrazol-3-yl)pyridine-2,4-diamine], the IC50 at EGFR del19/T790M/C797S (setting [11]) was 2.1 nM; at EGFR L858R/T790M/C797S (setting [12]), 2 nM; on EGFR del19/C797S (setting [13]), 6.3 nM; at EGFR L858R/C797S (setting [14]) it was 96.5 nM; on EGFR wildtype (WT) (setting [15]), more than 10000 nM.

Take `Cn1ccc(-c2cnc(Nc3ccnc(-c4cnn(S(=O)(=O)C5CC5)c4)n3)cc2N[C@H]2CC[C@](O)(C(F)(F)F)CC2)n1` [Example 94, (1s,4s)-4-((2-((2-(1-(Cyclopropylsulfonyl)-1H-pyrazol-4-yl)pyrimidin-4-yl)amino)-5-(1-methyl-1H-pyrazol-3-yl)pyridin-4-yl)amino)-1-(trifluoromethyl)cyclohexan-1-ol]: the IC50 is 3.4 nM on EGFR del19/T790M/C797S (setting [11]); 4 nM at EGFR L858R/T790M/C797S (setting [12]); 54.1 nM on EGFR del19/C797S (setting [13]); 58.1 nM at EGFR L858R/C797S (setting [14]); more than 10000 nM at EGFR wildtype (WT) (setting [15]).
